Test system: rodent lifetime carcinogenesis bioassay, tumor incidence TD50
Assay: chronic cancer bioassays in animals – CPDB, compiled studies (AID 1745844)
Settings: rat, strain Fischer 344, by gavage

SMILES: ClCC(Cl)CCl
- TD50 (females, site: mammary gland, lesion: fibroadenoma, dosed 91 weeks, study length 105 weeks): 3.42 mg/kg/day
- TD50 (females, site: palate + pharynx + tongue, lesion: squamous-cell papilloma + squamous-cell carcinoma, dosed 91 weeks, study length 105 weeks): 2.93 mg/kg/day
- TD50 (females, site: palate + pharynx, lesion: squamous-cell carcinoma, dosed 91 weeks, study length 105 weeks): 8.87 mg/kg/day
- TD50 (females, site: palate + tongue, lesion: squamous-cell papilloma, dosed 91 weeks, study length 105 weeks): 5.98 mg/kg/day
- TD50 (females, site: palate, lesion: squamous-cell papilloma, dosed 91 weeks, study length 105 weeks): 18.5 mg/kg/day
- TD50 (females, site: pharynx + tongue, lesion: squamous-cell carcinoma, dosed 91 weeks, study length 105 weeks): 5.12 mg/kg/day
- TD50 (females, site: thyroid gland, lesion: follicular-cell adenoma + follicular-cell carcinoma, dosed 91 weeks, study length 105 weeks): 25.2 mg/kg/day
- TD50 (females, site: thyroid gland, lesion: follicular-cell adenoma, dosed 91 weeks, study length 105 weeks): 36.9 mg/kg/day
- TD50 (females, site: tongue, lesion: squamous-cell carcinoma + squamous-cell papilloma, dosed 91 weeks, study length 105 weeks): 4.7 mg/kg/day
- TD50 (females, site: tongue, lesion: squamous-cell carcinoma, dosed 91 weeks, study length 105 weeks): 10.1 mg/kg/day
- TD50 (females, site: tongue, lesion: squamous-cell papilloma, dosed 91 weeks, study length 105 weeks): 9.61 mg/kg/day
- TD50 (males, site: Zymbal's gland, lesion: carcinoma, dosed 94 weeks, study length 104 weeks): 297 mg/kg/day
- TD50 (males, site: adrenal medulla, lesion: pheochromocytoma benign, bilateral + pheochromocytoma, benign, dosed 94 weeks, study length 104 weeks): 12.4 mg/kg/day
- TD50 (males, site: adrenal medulla, lesion: pheochromocytoma benign, bilateral + pheochromocytoma, complex + pheochromocytoma, malignant + pheochromocytoma, benign, dosed 94 weeks, study length 104 weeks): 11.4 mg/kg/day
- TD50 (males, site: all sites, lesion: mononuclear-cell leukemia, dosed 94 weeks, study length 104 weeks): 11.9 mg/kg/day
- TD50 (males, site: any site (literature study), lesion: several types, types named in the paper, dosed 94 weeks, study length 104 weeks): 1.36 mg/kg/day
- TD50 (males, site: colon + jejunum + rectum, lesion: adenocarcinoma + adenomatous polyp, dosed 94 weeks, study length 104 weeks): 73.4 mg/kg/day
- TD50 (males, site: colon + jejunum, lesion: adenocarcinoma, dosed 94 weeks, study length 104 weeks): 102 mg/kg/day
- TD50 (males, site: colon + rectum, lesion: adenomatous polyp, dosed 94 weeks, study length 104 weeks): 264 mg/kg/day
- TD50 (males, site: forestomach + kidney + palate + pancreas + preputial gland + tongue + Zymbal's gland, lesion: squamous-cell carcinoma + squamous-cell papilloma + tubule adenoma + adenoma + acinar-cell adenoma + acinar-cell adenocarcinoma + ca, dosed 94 weeks, study length 104 weeks): 1.1 mg/kg/day
- TD50 (males, site: forestomach, lesion: squamous-cell carcinoma + squamous-cell papilloma, dosed 94 weeks, study length 104 weeks): 1.15 mg/kg/day
- TD50 (males, site: forestomach, lesion: squamous-cell carcinoma, dosed 94 weeks, study length 104 weeks): 3 mg/kg/day
- TD50 (males, site: forestomach, lesion: squamous-cell papilloma, dosed 94 weeks, study length 104 weeks): 1.53 mg/kg/day
- TD50 (males, site: kidney, lesion: tubule adenoma, dosed 94 weeks, study length 104 weeks): 4.44 mg/kg/day
- TD50 (males, site: liver, lesion: hepatocellular adenoma + hepatoblastoma + hepatocellular carcinoma, dosed 94 weeks, study length 104 weeks): 23 mg/kg/day
- TD50 (males, site: liver, lesion: hepatocellular adenoma + hepatocellular carcinoma, dosed 94 weeks, study length 104 weeks): 23 mg/kg/day
- TD50 (males, site: liver, lesion: hepatocellular adenoma, dosed 94 weeks, study length 104 weeks): 31.7 mg/kg/day
- TD50 (males, site: palate + tongue, lesion: squamous-cell carcinoma + squamous-cell papilloma, dosed 94 weeks, study length 104 weeks): 4.48 mg/kg/day
- TD50 (males, site: palate + tongue, lesion: squamous-cell carcinoma, dosed 94 weeks, study length 104 weeks): 8.65 mg/kg/day
- TD50 (males, site: palate + tongue, lesion: squamous-cell papilloma, dosed 94 weeks, study length 104 weeks): 8.16 mg/kg/day
- TD50 (males, site: palate, lesion: squamous-cell carcinoma, dosed 94 weeks, study length 104 weeks): 11.7 mg/kg/day
- TD50 (males, site: palate, lesion: squamous-cell papilloma, dosed 94 weeks, study length 104 weeks): 36.6 mg/kg/day
- TD50 (males, site: pancreas, lesion: acinar-cell adenocarcinoma, dosed 94 weeks, study length 104 weeks): 51.5 mg/kg/day
- TD50 (males, site: pancreas, lesion: adenoma + acinar-cell adenoma + acinar-cell adenocarcinoma, dosed 94 weeks, study length 104 weeks): 1.65 mg/kg/day
- TD50 (males, site: pancreas, lesion: adenoma + acinar-cell adenoma, dosed 94 weeks, study length 104 weeks): 1.65 mg/kg/day
- TD50 (males, site: preputial gland, lesion: adenoma + carcinoma, dosed 94 weeks, study length 104 weeks): 9.59 mg/kg/day
- TD50 (males, site: preputial gland, lesion: adenoma, dosed 94 weeks, study length 104 weeks): 14 mg/kg/day
- TD50 (males, site: preputial gland, lesion: carcinoma, dosed 94 weeks, study length 104 weeks): 28 mg/kg/day
- TD50 (males, site: skin, lesion: basal-cell carcinoma + keratoacanthoma + squamous-cell carcinoma + squamous-cell papilloma + trichoepithelioma, dosed 94 weeks, study length 104 weeks): 20.8 mg/kg/day
- TD50 (males, site: skin, lesion: squamous-cell carcinoma + squamous-cell papilloma, dosed 94 weeks, study length 104 weeks): 39.6 mg/kg/day
- TD50 (males, site: skin, lesion: squamous-cell papilloma, dosed 94 weeks, study length 104 weeks): 51 mg/kg/day
- TD50 (males, site: subcutaneous tissue, lesion: fibroma + sarcoma, dosed 94 weeks, study length 104 weeks): 19.6 mg/kg/day
- TD50 (males, site: subcutaneous tissue, lesion: fibroma, dosed 94 weeks, study length 104 weeks): 20.2 mg/kg/day
- TD50 (males, site: testis, lesion: interstitial-cell adenoma, bilateral + interstitial-cell adenoma, dosed 94 weeks, study length 104 weeks): 1.35 mg/kg/day
- TD50 (males, site: thyroid gland, lesion: c-cell adenoma + c-cell carcinoma, dosed 94 weeks, study length 104 weeks): 8.15 mg/kg/day
- TD50 (males, site: thyroid gland, lesion: c-cell adenoma, dosed 94 weeks, study length 104 weeks): 10.3 mg/kg/day
- TD50 (males, site: thyroid gland, lesion: follicular-cell adenoma + follicular-cell carcinoma, dosed 94 weeks, study length 104 weeks): 35.2 mg/kg/day
- TD50 (males, site: tongue, lesion: squamous-cell carcinoma + squamous-cell papilloma, dosed 94 weeks, study length 104 weeks): 7.86 mg/kg/day
- TD50 (males, site: tongue, lesion: squamous-cell carcinoma, dosed 94 weeks, study length 104 weeks): 34.7 mg/kg/day
- TD50 (males, site: tongue, lesion: squamous-cell papilloma, dosed 94 weeks, study length 104 weeks): 10.2 mg/kg/day

— PubChem BioAssay AID1745844 (Carcinogenic Potency Database (CPDB), 2022)
